The numbers were not newly measured in article PMC4136950 (Journal of peptide science : an official publication of the …, 2010), which cites them from elsewhere.

Series [1] addresses NR2B NMDA receptor subtype (co-expressed with NR1-2b) (Rattus norvegicus, UniProt P35439+Q00960). Particulars: read-out: Approximate IC50, NR2B.
Series [2] has as its target NR2C NMDA receptor subtype (co-expressed with NR1-2b) (Rattus norvegicus, UniProt P35439+Q00961). The following applies: read-out: Approximate IC50, NR2C.
The target in series [3] is NR2A NMDA receptor subtype (co-expressed with NR1-2b) (Rattus norvegicus, UniProt P35439+Q00959). The following applies: read-out: Approximate IC50, NR2A.
Series [4] concerns the target NR2D NMDA receptor subtype (co-expressed with NR1-2b) (Rattus norvegicus, UniProt P35439+Q62645). Particulars: read-out: Approximate IC50, NR2D.
Series [5] concerns NMDA receptor subtypes NR2(A-D).

Sequence of NR2C NMDA receptor subtype (co-expressed with NR1-2b) (Q00961 20-1237, other chains not shown): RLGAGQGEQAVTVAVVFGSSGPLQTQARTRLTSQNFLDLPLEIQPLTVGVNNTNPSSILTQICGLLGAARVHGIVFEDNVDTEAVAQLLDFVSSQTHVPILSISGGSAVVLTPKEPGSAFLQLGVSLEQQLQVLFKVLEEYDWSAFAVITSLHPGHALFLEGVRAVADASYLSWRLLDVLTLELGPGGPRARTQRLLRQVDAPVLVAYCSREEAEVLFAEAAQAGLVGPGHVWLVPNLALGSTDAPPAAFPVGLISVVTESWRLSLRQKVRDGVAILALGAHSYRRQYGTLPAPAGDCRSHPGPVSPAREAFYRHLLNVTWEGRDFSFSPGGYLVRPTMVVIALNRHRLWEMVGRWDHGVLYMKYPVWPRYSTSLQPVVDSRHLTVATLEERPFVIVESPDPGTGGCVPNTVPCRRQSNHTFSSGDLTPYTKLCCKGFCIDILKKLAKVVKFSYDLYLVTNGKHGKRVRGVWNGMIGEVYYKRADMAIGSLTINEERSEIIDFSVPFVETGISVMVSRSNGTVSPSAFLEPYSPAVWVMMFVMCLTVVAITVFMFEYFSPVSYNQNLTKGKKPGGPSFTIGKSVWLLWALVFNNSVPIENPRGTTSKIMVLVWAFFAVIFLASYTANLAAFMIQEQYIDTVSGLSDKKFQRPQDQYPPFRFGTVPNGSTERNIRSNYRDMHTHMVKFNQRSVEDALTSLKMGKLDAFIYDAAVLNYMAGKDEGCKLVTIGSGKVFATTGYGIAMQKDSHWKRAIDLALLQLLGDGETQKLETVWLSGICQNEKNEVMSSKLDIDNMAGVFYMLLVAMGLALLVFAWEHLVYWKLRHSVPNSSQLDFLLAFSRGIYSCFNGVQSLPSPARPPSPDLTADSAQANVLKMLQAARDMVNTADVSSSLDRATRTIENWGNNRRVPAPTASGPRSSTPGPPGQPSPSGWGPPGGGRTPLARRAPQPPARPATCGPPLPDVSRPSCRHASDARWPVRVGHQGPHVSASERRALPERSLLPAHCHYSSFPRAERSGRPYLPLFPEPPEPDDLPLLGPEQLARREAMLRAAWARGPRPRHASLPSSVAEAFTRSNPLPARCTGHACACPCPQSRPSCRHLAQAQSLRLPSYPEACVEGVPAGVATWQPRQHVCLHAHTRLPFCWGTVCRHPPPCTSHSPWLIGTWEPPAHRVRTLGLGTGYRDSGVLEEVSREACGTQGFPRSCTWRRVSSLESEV
Sequence of NR2B NMDA receptor subtype (co-expressed with NR1-2b) (Q00960 27-1482, other chains not shown): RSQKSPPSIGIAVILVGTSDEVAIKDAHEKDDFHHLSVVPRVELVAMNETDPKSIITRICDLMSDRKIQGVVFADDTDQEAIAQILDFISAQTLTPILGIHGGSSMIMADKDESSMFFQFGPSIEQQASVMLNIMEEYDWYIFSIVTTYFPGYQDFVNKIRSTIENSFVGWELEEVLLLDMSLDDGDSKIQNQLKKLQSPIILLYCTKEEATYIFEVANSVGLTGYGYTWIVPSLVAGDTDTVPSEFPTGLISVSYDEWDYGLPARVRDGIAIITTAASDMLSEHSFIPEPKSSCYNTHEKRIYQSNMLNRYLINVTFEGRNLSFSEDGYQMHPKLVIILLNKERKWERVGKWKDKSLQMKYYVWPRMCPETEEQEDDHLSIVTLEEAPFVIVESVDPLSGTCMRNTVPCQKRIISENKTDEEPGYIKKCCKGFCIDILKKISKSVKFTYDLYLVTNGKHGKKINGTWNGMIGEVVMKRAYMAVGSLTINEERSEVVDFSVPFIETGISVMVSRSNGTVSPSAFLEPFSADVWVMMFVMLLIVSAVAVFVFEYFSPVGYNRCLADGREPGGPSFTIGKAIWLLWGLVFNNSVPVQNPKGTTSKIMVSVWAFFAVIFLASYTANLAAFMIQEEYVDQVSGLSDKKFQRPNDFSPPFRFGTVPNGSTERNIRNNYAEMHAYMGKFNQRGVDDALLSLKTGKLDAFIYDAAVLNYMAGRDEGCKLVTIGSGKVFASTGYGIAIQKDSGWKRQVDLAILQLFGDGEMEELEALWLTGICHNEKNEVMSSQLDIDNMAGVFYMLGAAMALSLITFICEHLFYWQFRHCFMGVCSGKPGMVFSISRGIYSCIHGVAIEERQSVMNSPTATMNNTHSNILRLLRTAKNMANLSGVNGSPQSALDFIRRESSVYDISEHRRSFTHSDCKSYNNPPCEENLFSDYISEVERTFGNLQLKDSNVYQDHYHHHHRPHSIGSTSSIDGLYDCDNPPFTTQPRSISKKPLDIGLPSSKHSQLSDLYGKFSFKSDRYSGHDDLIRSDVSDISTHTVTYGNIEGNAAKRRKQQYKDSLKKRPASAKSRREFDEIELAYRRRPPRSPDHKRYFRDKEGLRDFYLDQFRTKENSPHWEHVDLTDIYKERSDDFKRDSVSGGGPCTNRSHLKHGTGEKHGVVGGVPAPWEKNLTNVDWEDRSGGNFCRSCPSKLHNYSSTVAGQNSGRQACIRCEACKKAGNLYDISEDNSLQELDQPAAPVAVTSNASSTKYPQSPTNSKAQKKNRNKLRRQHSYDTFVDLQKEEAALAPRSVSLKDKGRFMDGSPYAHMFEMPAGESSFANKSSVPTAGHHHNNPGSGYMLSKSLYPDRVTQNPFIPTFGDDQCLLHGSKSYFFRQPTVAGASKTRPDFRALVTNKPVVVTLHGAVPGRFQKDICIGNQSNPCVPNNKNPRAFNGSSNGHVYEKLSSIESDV
Sequence of NR2D NMDA receptor subtype (co-expressed with NR1-2b) (Q62645 28-1323, other chains not shown): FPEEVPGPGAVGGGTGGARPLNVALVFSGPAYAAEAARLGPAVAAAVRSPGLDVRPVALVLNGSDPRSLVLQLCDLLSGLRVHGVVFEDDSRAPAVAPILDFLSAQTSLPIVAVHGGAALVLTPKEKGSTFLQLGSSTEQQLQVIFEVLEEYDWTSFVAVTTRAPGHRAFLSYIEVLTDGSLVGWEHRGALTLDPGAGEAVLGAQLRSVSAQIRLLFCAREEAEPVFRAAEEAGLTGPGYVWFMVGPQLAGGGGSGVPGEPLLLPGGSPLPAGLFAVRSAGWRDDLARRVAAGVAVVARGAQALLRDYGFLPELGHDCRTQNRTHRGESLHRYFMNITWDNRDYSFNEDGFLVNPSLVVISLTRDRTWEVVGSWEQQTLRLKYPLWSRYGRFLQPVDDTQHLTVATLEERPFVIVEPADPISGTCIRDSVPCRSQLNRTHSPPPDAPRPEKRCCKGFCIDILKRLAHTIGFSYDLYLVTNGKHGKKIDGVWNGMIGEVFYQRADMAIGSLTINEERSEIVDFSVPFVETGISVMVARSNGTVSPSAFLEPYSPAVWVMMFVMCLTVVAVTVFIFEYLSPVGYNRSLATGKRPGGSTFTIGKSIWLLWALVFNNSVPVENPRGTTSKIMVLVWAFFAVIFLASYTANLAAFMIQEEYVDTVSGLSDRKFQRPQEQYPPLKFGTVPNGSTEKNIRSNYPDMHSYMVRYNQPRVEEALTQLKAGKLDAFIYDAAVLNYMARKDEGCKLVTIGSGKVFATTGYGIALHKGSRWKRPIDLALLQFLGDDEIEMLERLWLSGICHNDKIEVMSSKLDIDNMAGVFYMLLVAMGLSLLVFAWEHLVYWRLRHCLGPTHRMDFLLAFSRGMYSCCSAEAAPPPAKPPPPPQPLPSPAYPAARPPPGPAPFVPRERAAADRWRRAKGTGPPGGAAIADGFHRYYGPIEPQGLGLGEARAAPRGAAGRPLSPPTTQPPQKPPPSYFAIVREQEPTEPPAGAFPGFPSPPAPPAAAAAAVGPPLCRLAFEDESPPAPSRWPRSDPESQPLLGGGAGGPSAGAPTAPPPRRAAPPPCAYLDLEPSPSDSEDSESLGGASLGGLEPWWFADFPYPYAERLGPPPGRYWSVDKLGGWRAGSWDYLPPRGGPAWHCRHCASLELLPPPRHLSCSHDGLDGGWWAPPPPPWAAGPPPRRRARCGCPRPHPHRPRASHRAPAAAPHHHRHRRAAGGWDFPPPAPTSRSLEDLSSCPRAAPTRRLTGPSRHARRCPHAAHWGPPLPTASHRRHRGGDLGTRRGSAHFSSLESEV

Broadly, the IC50 is the concentration at which inhibition is half-maximal. Take GDγγ YSK FIγ RERγ AGR LDLSKFP^^ [ConBr]: the IC50 in series [1] is 140 nM; in series [2] it was 4900 nM; in series [3] it was 680 nM; in series [4], 310 nM. For the same substance, the “antagonism of NMDA receptor subtypes” value in series [5] was “known antagonist of the NR2B and NR2D NMDA receptor subtypes”.
